Tests used:
Experiment in all cases: relative viability (nuclei count vs DMSO), 5 days (fraction); higher = more cells survive
[1] = test system: NCI-H1648
Method in brief: (§1)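 Values are medians from duplicate plates. Each reflects relative viability, defined as the nuclei count of treated wells over that of vehicle wells. Lung cancer cell lines in 1536-well plates were pin-tool dosed one day after seeding with one drug alone or with a fixed anchor-drug dose plus five library-drug doses (not always all listed) in √10 steps, then fixed, stained and imaged at 4× after 5 days.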

[2] = test system: NCI-H2342
Method in brief: as §1

[3] = test system: NCI-H661
Method in brief: as §1

[4] = test system: HCC-78
Method in brief: as §1

[5] = test system: NCI-H460
Method in brief: as §1

[6] = test system: NCI-H358
Method in brief: as §1

[7] = test system: A549
Method in brief: as §1

[8] = test system: NCI-H2009
Method in brief: as §1

[9] = test system: NCI-H522
Method in brief: as §1

How did the relative viability ([1]; first compound 0.0002 µM) turn out when `CC(=O)O[C@@]12CO[C@@H]1C[C@H](O)[C@@]1(C)C(=O)[C@H](O)C3=C(C)[C@@H](OC(=O)[C@H](O)[C@@H](NC(=O)OC(C)(C)C)c4ccccc4)C[C@@](O)([C@@H](OC(=O)c4ccccc4)[C@H]21)C3(C)C` [Docetaxel] + Nc1ncn([C@H]2C[C@H](O)[C@@H](CO)O2)c(=O)n1 [Decitabine] (partner 2 µM) was run?
The relative viability was 0.452.

And the relative viability ([1]; first compound 0.000632 µM)?
Its relative viability is 0.487.

What about the relative viability ([1]; first compound 0.002 µM) of the same compound?
Its relative viability is 0.339.

What about the relative viability ([1]; first compound 0.006325 µM) of the same compound?
Its relative viability is 0.216.

What about the relative viability ([1]; first compound 0.02 µM) of the same compound?
The relative viability was 0.231.

What about the relative viability ([2]; first compound 0.0002 µM) of the same compound?
The relative viability was 0.72.

And the relative viability ([2]; first compound 0.000632 µM)?
Its relative viability is 0.72.

What about the relative viability ([2]; first compound 0.002 µM) of the same compound?
The relative viability was 0.583.

What about the relative viability ([2]; first compound 0.006325 µM) of the same compound?
The relative viability was 0.519.

And the relative viability ([2]; first compound 0.02 µM)?
The relative viability was 0.489.

What about the relative viability ([3]; first compound 0.0002 µM) of the same compound?
The relative viability was 0.519.

And the relative viability ([3]; first compound 0.000632 µM)?
Its relative viability is 0.575.

And the relative viability ([3]; first compound 0.002 µM)?
The relative viability was 0.606.

And the relative viability ([3]; first compound 0.006325 µM)?
Its relative viability is 0.358.

And the relative viability ([3]; first compound 0.02 µM)?
Its relative viability is 0.343.

And the relative viability ([4]; first compound 0.0002 µM)?
The relative viability was 0.627.

And the relative viability ([4]; first compound 0.000632 µM)?
Its relative viability is 0.654.

And the relative viability ([4]; first compound 0.002 µM)?
Its relative viability is 0.458.

What about the relative viability ([4]; first compound 0.006325 µM) of the same compound?
The relative viability was 0.511.

And the relative viability ([4]; first compound 0.02 µM)?
Its relative viability is 0.353.

And the relative viability ([5]; first compound 0.0002 µM)?
Its relative viability is 0.443.

And the relative viability ([5]; first compound 0.002 µM)?
Its relative viability is 0.061.

What about the relative viability ([5]; first compound 0.006325 µM) of the same compound?
The relative viability was 0.0383.

What about the relative viability ([5]; first compound 0.02 µM) of the same compound?
The relative viability was 0.0286.

What about the relative viability ([6]; first compound 0.0002 µM) of the same compound?
The relative viability was 0.183.

And the relative viability ([6]; first compound 0.000632 µM)?
Its relative viability is 0.189.

And the relative viability ([6]; first compound 0.002 µM)?
Its relative viability is 0.18.

What about the relative viability ([6]; first compound 0.006325 µM) of the same compound?
The relative viability was 0.135.

And the relative viability ([6]; first compound 0.02 µM)?
Its relative viability is 0.116.

And the relative viability ([7]; first compound 0.0002 µM)?
Its relative viability is 0.297.

What about the relative viability ([7]; first compound 0.000632 µM) of the same compound?
The relative viability was 0.18.

What about the relative viability ([7]; first compound 0.002 µM) of the same compound?
The relative viability was 0.0587.

And the relative viability ([7]; first compound 0.006325 µM)?
The relative viability was 0.0522.

What about the relative viability ([7]; first compound 0.02 µM) of the same compound?
The relative viability was 0.0318.

And the relative viability ([8]; first compound 0.0002 µM)?
Its relative viability is 0.438.

What about the relative viability ([8]; first compound 0.000632 µM) of the same compound?
Its relative viability is 0.376.

What about the relative viability ([8]; first compound 0.002 µM) of the same compound?
The relative viability was 0.3.

And the relative viability ([8]; first compound 0.006325 µM)?
The relative viability was 0.263.

What about the relative viability ([8]; first compound 0.02 µM) of the same compound?
Its relative viability is 0.181.

And the relative viability ([9]; first compound 0.0002 µM)?
Its relative viability is 0.641.

And the relative viability ([9]; first compound 0.000632 µM)?
The relative viability was 0.571.

And the relative viability ([9]; first compound 0.002 µM)?
Its relative viability is 0.586.

What about the relative viability ([9]; first compound 0.006325 µM) of the same compound?
The relative viability was 0.448.

What about the relative viability ([9]; first compound 0.02 µM) of the same compound?
The relative viability was 0.377.

`Nc1ccn([C@@H]2O[C@H](CO)[C@@H](O)[C@@H]2O)c(=O)n1` [Cytarabine] + Nc1ncn([C@H]2C[C@H](O)[C@@H](CO)O2)c(=O)n1 [Decitabine] (partner 2 µM) was tested. Which relative viability ([1]; first compound 0.005 µM) did it give?
Its relative viability is 0.479.

And the relative viability ([1]; first compound 0.01581 µM)?
The relative viability was 0.526.

And the relative viability ([1]; first compound 0.05 µM)?
The relative viability was 0.502.

What about the relative viability ([1]; first compound 0.1581 µM) of the same compound?
Its relative viability is 0.35.

What about the relative viability ([1]; first compound 0.5 µM) of the same compound?
The relative viability was 0.362.

What about the relative viability ([2]; first compound 0.005 µM) of the same compound?
The relative viability was 0.712.

What about the relative viability ([2]; first compound 0.01581 µM) of the same compound?
Its relative viability is 0.702.

And the relative viability ([2]; first compound 0.05 µM)?
Its relative viability is 0.7.

What about the relative viability ([2]; first compound 0.1581 µM) of the same compound?
The relative viability was 0.482.

And the relative viability ([2]; first compound 0.5 µM)?
The relative viability was 0.483.

And the relative viability ([3]; first compound 0.005 µM)?
The relative viability was 0.556.

And the relative viability ([3]; first compound 0.01581 µM)?
The relative viability was 0.509.

What about the relative viability ([3]; first compound 0.05 µM) of the same compound?
Its relative viability is 0.519.

What about the relative viability ([3]; first compound 0.1581 µM) of the same compound?
Its relative viability is 0.422.

And the relative viability ([3]; first compound 0.5 µM)?
The relative viability was 0.295.

And the relative viability ([4]; first compound 0.005 µM)?
Its relative viability is 0.715.

And the relative viability ([4]; first compound 0.01581 µM)?
The relative viability was 0.668.

And the relative viability ([4]; first compound 0.05 µM)?
Its relative viability is 0.587.

What about the relative viability ([4]; first compound 0.1581 µM) of the same compound?
Its relative viability is 0.492.

What about the relative viability ([4]; first compound 0.5 µM) of the same compound?
The relative viability was 0.44.

What about the relative viability ([5]; first compound 0.005 µM) of the same compound?
Its relative viability is 0.451.

What about the relative viability ([5]; first compound 0.01581 µM) of the same compound?
Its relative viability is 0.406.

What about the relative viability ([5]; first compound 0.05 µM) of the same compound?
Its relative viability is 0.336.

And the relative viability ([5]; first compound 0.1581 µM)?
The relative viability was 0.0621.

What about the relative viability ([5]; first compound 0.5 µM) of the same compound?
Its relative viability is 0.0458.

What about the relative viability ([6]; first compound 0.005 µM) of the same compound?
The relative viability was 0.229.

And the relative viability ([6]; first compound 0.01581 µM)?
The relative viability was 0.205.

And the relative viability ([6]; first compound 0.05 µM)?
Its relative viability is 0.226.

What about the relative viability ([6]; first compound 0.1581 µM) of the same compound?
Its relative viability is 0.133.

And the relative viability ([6]; first compound 0.5 µM)?
The relative viability was 0.107.

And the relative viability ([7]; first compound 0.005 µM)?
The relative viability was 0.215.

What about the relative viability ([7]; first compound 0.01581 µM) of the same compound?
Its relative viability is 0.115.

What about the relative viability ([7]; first compound 0.05 µM) of the same compound?
Its relative viability is 0.161.

What about the relative viability ([7]; first compound 0.1581 µM) of the same compound?
The relative viability was 0.0447.

And the relative viability ([7]; first compound 0.5 µM)?
Its relative viability is 0.0287.

And the relative viability ([8]; first compound 0.005 µM)?
The relative viability was 0.325.

What about the relative viability ([8]; first compound 0.01581 µM) of the same compound?
The relative viability was 0.363.

What about the relative viability ([8]; first compound 0.05 µM) of the same compound?
Its relative viability is 0.342.

What about the relative viability ([8]; first compound 0.1581 µM) of the same compound?
Its relative viability is 0.243.

What about the relative viability ([8]; first compound 0.5 µM) of the same compound?
Its relative viability is 0.189.

And the relative viability ([9]; first compound 0.005 µM)?
The relative viability was 0.653.

What about the relative viability ([9]; first compound 0.01581 µM) of the same compound?
Its relative viability is 0.608.

What about the relative viability ([9]; first compound 0.05 µM) of the same compound?
The relative viability was 0.628.

And the relative viability ([9]; first compound 0.1581 µM)?
Its relative viability is 0.484.

What about the relative viability ([9]; first compound 0.5 µM) of the same compound?
Its relative viability is 0.335.

From the supplement of paper PMC10307832
